The text below walks through data of patent US9029366B2, “Substituted bicyclic alkoxy pyrazole analogs as allosteric modulators of mGluR5 receptors” (Vanderbilt University, priority 2012, dated 2015).

Read-outs that look alike come from different tables or passages of the source.

This test deals with human mGluR5 (Homo sapiens, UniProt P41594). In words: Cell-based functional Ca2+ mobilization assay (FDSS), potentiation of glutamate EC20 response, HEK293A cells transfected with human mGluR5a (H10H or H12H cell line). To be noted: in presence of glutamate EC20, ** = compound is an antagonist; for Emax (%) / Emax: % of maximal glutamate response; for Emax: HEK293-A. Here is the method: Human embryonic kidney (HEK) cells transfected with rat mGluR5 were plated in clear bottom assay plates for assay in a Functional Drug Screening System (FDSS). In the alternative assay, HEK cells transfected with human mGluR5 were plated for assay in the FDSS. In some cases the HEK cells transfected with human mGluR5 are the H10H cell line. Alternatively, the HEK cells transfected with human mGluR5 are the H12H cell line. […] The cells were loaded with a Ca^2+-sensitive fluorescent dye (e.g., Fluo-4), and the plates were washed and placed in the FDSS instrument. After establishment of a fluorescence baseline for about three seconds, the compounds of the present invention were added to the cells, and the response in cells was measured. Five minutes later, an mGluR5 agonist (e.g., glutamate, 3,5-dihydroxyphenylglycine, or quisqualate) was added to the cells, and the response of the cells was measured.
The above described assay can be operated in two modes. In the first mode, a range of concentrations of the present compounds were added to cells, followed by a single fixed concentration of agonist. If a compound acted as a potentiator, an EC50 value for potentiation and a maximum extent of potentiation by the compound at this concentration of agonist was determined by non-linear curve fitting. In the second mode, several fixed concentrations of the present compounds were added to various wells on a plate, followed by a range of concentrations of agonist for each concentration of present compound; the EC50 values for the agonist at each concentration of compound were determined by non-linear curve fitting. A decrease in the EC50 value of the agonist with increasing concentrations of the present compounds (a leftward shift of the agonist concentration-response curve) is an indication of the degree of mGluR5 potentiation at a given concentration of the present compound. An increase in the EC50 value of the agonist with increasing concentrations of the present compounds (a rightward shift of the agonist concentration-response curve) is an indication of the degree of mGluR5 antagonism at a given concentration of the present compound. The second mode also indicates whether the present compounds also affect the maximum response to mGluR5 to agonists.
Human mGluR5a cDNA in pCMV6-XL6 mammalian expression plasmid was purchased from OriGene Technologies, Inc. (catalogue number SC326357) and subcloned into pcDNA3.1(−). Human embryonic kidney (HEK)293A cells were then transfected with human mGluR5a pcDNA3.1(−) using LipofectAmine2000 (Invitrogen) and monoclones were selected and tested for functional response using a Ca^2+ mobilization assay. Monoclones were named for the species (“H” for human) plus the location on the plate (e.g. “10H”).
HEK cells transfected with the human mGluR5a receptor (H10H or H12H cell line) were plated at 15,000 cells/well in clear-bottomed poly-D-lysine-coated assay plates (BD Falcon) in glutamate-glutamine-free growth medium and incubated overnight at 37° C. and 5% CO2. Cell-lines used were either the H10H or H12H cell-lines expressing the human mGluR5 receptor. The following day, the growth medium was removed and the cells were washed with assay buffer containing 1× Hank's balanced salt solution (Invitrogen, Carlsbad, Calif.), 20 mM HEPES, 2.5 mM probenecid, pH 7.4 and left with 20 μL of this reagent. Following this step, the cells were loaded with calcium indicator dye, fluo-4 AM, to a final concentration of 2 μM and incubated for 40-45 min at 37° C. The dye solution was removed and replaced with assay buffer. Cell plates were held for 10-15 min at room temperature and were then loaded into the Functional Drug Screening System 6000 (FDSS 6000, Hamamatsu, Japan).
After establishment of a fluorescence baseline for about 3 seconds, the compounds of the present invention were added to the cells, and the response in cells was measured.
(In general: Calcium flux is commonly read through the fluorescence of an indicator in the cells.)

[1] abbreviates: H10H cell line expressing recombinant human mGluR5.
[2] abbreviates: H10H cell line expressing recombinant human mGluR5, read-out: pEC50 (converted).

human mGluR5, sequence (P41594 21-1180 isoform P41594-2 limits assumed): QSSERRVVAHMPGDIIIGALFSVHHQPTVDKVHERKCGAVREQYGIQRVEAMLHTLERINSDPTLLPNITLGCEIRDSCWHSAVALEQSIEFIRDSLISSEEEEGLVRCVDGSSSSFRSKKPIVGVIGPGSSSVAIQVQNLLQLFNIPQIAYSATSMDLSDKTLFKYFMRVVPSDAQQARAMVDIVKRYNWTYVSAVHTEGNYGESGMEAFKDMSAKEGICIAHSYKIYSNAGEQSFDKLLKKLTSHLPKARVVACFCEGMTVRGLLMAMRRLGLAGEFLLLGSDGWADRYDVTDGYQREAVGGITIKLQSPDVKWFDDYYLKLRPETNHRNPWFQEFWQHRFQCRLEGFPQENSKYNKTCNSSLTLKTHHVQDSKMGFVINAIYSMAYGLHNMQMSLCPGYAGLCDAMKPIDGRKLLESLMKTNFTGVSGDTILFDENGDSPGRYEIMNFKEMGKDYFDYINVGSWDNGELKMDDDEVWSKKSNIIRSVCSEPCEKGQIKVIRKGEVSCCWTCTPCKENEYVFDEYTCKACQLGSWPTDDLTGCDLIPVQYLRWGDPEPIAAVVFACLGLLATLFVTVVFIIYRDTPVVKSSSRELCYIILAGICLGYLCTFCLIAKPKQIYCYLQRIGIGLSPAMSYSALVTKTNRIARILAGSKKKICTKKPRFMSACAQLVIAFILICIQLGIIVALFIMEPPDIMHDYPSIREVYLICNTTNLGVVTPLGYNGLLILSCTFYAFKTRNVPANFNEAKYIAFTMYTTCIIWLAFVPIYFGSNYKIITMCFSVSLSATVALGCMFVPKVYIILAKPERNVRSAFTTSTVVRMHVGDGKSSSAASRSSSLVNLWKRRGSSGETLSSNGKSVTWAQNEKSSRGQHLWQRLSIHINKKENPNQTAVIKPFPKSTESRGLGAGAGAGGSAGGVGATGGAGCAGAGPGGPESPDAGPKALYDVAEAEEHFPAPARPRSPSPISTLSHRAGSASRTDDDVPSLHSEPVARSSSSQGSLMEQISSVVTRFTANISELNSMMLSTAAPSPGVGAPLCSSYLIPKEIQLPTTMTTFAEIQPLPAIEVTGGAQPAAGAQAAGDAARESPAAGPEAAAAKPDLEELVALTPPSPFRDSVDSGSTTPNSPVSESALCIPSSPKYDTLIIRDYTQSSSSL

A word on the pEC50: it is the EC50 on a negative log10 scale, so that one unit is a factor of ten. For the compound “1-(2-(benzyloxy)-6,7-dihydropyrazolo[1,5-a]pyrazin-5(4H)-yl)-2-(tert-butylamino)ethanone [Example B24]”, under setting [1], the “Emax (%)” value is 28% and the pEC50 was under 4.52.

Usually Emax stands for the greatest response seen or fitted, relative to the assay's reference. `O=C(c1ccc(F)cc1)N1CCn2nc(OCc3ccccc3)cc2C1` [Example B1, 2-(benzyloxy)-5-[(4-fluorophenyl)carbonyl]-4,5,6,7-tetrahydropyrazolo[1,5-a]pyrazine]: under setting [2], the EC50 was 166 nM. For the same compound, the Emax under setting [1] stood at 68%. In the case of `C[C@@H]1Cn2nc(OCc3ccccc3)cc2CN1C(=O)c1ccc(F)cc1` [Example B7], the EC50 under setting [2] is 813 nM. In addition, the Emax under setting [1] was 62%. On to `CC(C)(C)OCC(=O)N1CCn2nc(OCc3ccccc3)cc2C1` [Example B21], for which the EC50 under setting [2] was 631 nM. Also, the Emax under setting [1] came out at 53%. As to `CC(C)OCC(=O)N1CCn2nc(OCc3ccccc3)cc2C1` [Example B23], under setting [2], the EC50 is 3240 nM. Moreover, the Emax under setting [1] came to 34%. For `CC(C)(C)NCC(=O)N1CCn2nc(OCc3ccccc3)cc2C1` [Example B25], in that order: over 30200 nM and 20%.

As to `CC(C)(C)CCC(=O)N1CCn2nc(OCc3ccccc3)cc2C1` [Example B26], the EC50 under setting [2] is 589 nM. The Emax under setting [1] worked out at 59%. For `CCOCC(=O)N1CCn2nc(OCc3ccccc3)cc2C1` [Example B27], in that order: over 30200 nM and 17%. Taken in the same sequence, the figures for `O=C(c1cnccn1)N1CCn2nc(OCc3ccccc3)cc2C1` [Example B37] were over 10000 nM and 44%. For the compound `O=C(c1ccc(F)c(C(F)(F)F)c1)N1CCn2nc(OCc3ccccc3)cc2C1` [Example B39], the “Emax (%)” value under setting [1] came out at 51%.

In the case of `O=C(c1ccc(Cl)cc1)N1CCn2nc(OCc3ccccc3)cc2C1` [Example B40], the EC50 under setting [2] was 269 nM. In addition, the Emax under setting [1] came out at 46%. For `O=C(c1ccccc1C(F)(F)F)N1CCn2nc(OCc3ccccc3)cc2C1` [Example B41], in that order: over 30200 nM and 25%. For `O=C(c1ccc(Cl)c(Cl)c1)N1CCn2nc(OCc3ccccc3)cc2C1` [Example B42], in that order: 1230 nM and 39%. With `O=C(c1cccc(Cl)c1)N1CCn2nc(OCc3ccccc3)cc2C1` [Example B43], under setting [2], the EC50 was 70.8 nM. In addition, the Emax under setting [1] came to 51%.

As for `O=C(c1ccccc1Cl)N1CCn2nc(OCc3ccccc3)cc2C1` [Example B44], the EC50 under setting [2] is 95.5 nM. For the same compound, under setting [1], the maximum response (Emax) was found to be 33%. Taken in the same sequence, the figures for `COc1ccc(C(=O)N2CCn3nc(OCc4ccccc4)cc3C2)cc1F` [Example B45] were over 30200 nM and 19%. Taken in the same sequence, the figures for `N#Cc1ccc(C(=O)N2CCn3nc(OCc4ccccc4)cc3C2)c(F)c1` [Example B46] were over 30200 nM and 20%. As to `O=C(c1cc(Cl)cc(Cl)c1)N1CCn2nc(OCc3ccccc3)cc2C1` [Example B47], the EC50 under setting [2] was 110 nM. The Emax under setting [1] stood at 25%. For `CCOc1ccccc1C(=O)N1CCn2nc(OCc3ccccc3)cc2C1` [Example B48], in that order: over 30200 nM and 13%. As to `O=C(c1ccc(F)c(F)c1)N1CCn2nc(OCc3ccccc3)cc2C1` [Example B49], the EC50 under setting [2] was 692 nM. In addition, the Emax under setting [1] was 57%. As to `O=C(c1ccccc1)N1CCn2nc(OCc3ccccc3)cc2C1` [Example B50], the EC50 under setting [2] is 141 nM. Moreover, under setting [1], the maximal response (Emax) came out at 55%. For `O=C(c1ncccn1)N1CCn2nc(OCc3ccccc3)cc2C1` [Example B51], in that order: over 30200 nM and 26%. For `O=C(c1cc[nH]n1)N1CCn2nc(OCc3ccccc3)cc2C1` [Example B52], in that order: 2000 nM and 71%. In the case of `O=C(c1n[nH]c2ccccc12)N1CCn2nc(OCc3ccccc3)cc2C1` [Example B53], the EC50 under setting [2] was 117 nM. Also, the Emax under setting [1] is 69%.

For the compound `Cc1ccoc1C(=O)N1CCn2nc(OCc3ccccc3)cc2C1` [Example B54], the EC50 under setting [2] was over 30200 nM. Moreover, the Emax under setting [1] amounted to 20%.

For `O=C(c1ccco1)N1CCn2nc(OCc3ccccc3)cc2C1` [Example B55], the maximal effect (Emax) under setting [1] turned out to be 55%. The EC50 (pEC50, H10H cell line expressing recombinant human mGluR5) is 324 nM.

As to `Cc1ccc(C(=O)N2CCn3nc(OCc4ccccc4)cc3C2)o1` [Example B56], the EC50 under setting [2] was 562 nM. Besides, the Emax under setting [1] turned out to be 49%. In the case of `O=C(c1ccc[nH]1)N1CCn2nc(OCc3ccccc3)cc2C1` [Example B57], under setting [2], the EC50 was 1230 nM. Further, the maximum response (Emax) under setting [1] stood at 39%.

Regarding `O=C(c1cnc[nH]1)N1CCn2nc(OCc3ccccc3)cc2C1` [Example B58], under setting [2], the EC50 was over 30200 nM. In addition, the Emax under setting [1] turned out to be 22%. For `O=C(c1c[nH]c2ccccc12)N1CCn2nc(OCc3ccccc3)cc2C1` [Example B59], in that order: 166 nM and 71%. `O=C(c1ccsc1)N1CCn2nc(OCc3ccccc3)cc2C1` [Example B60]: the EC50 under setting [2] is 275 nM. The maximal effect (Emax) under setting [1] came to 61%. Taken in the same sequence, the figures for `O=C(c1ccccn1)N1CCn2nc(OCc3ccccc3)cc2C1` [Example B61] were 4270 nM and 46%. As to `O=C(c1ccncc1)N1CCn2nc(OCc3ccccc3)cc2C1` [Example B62], the EC50 under setting [2] was 1860 nM. For the same compound, under setting [1], the maximal response (Emax) amounted to 20%.

`O=C(c1cncc(F)c1)N1CCn2nc(OCc3ccccc3)cc2C1` [Example B63]: the EC50 under setting [2] was 2000 nM. Under setting [1], the maximum response (Emax) is 48%. On to `O=C(c1cccnc1)N1CCn2nc(OCc3ccccc3)cc2C1` [Example B64], for which the EC50 under setting [2] is over 10000 nM. Further, under setting [1], the Emax was determined as 38%. For `O=C(c1ncc(F)cc1F)N1CCn2nc(OCc3ccccc3)cc2C1` [Example B65], in that order: over 10000 nM and 56%. Taken in the same sequence, the figures for `O=C(CC1CCCC1)N1CCn2nc(OCc3ccccc3)cc2C1` [Example B67] were 479 nM and 52%. For `CC(C)(C)CC(=O)N1CCn2nc(OCc3ccccc3)cc2C1` [Example B68], in that order: 355 nM and 69%. With `O=C(CC(F)(F)F)N1CCn2nc(OCc3ccccc3)cc2C1` [Example B69], the EC50 under setting [2] was over 30200 nM. For the same compound, the Emax under setting [1] was determined as 16%. For `O=C(CCC(F)(F)F)N1CCn2nc(OCc3ccccc3)cc2C1` [Example B70], in that order: over 30200 nM and 25%. As for `O=C(C1CC1c1ccccc1)N1CCn2nc(OCc3ccccc3)cc2C1` (stereo not drawn) [Example B71], the EC50 under setting [2] was 2340 nM. Also, the Emax under setting [1] stood at 30%.

Regarding `O=C(COCc1ccccc1)N1CCn2nc(OCc3ccccc3)cc2C1` [Example B72], the EC50 under setting [2] was 3800 nM. In addition, the maximum response (Emax) under setting [1] was determined as 34%.

For `CCC(C)C(=O)N1CCn2nc(OCc3ccccc3)cc2C1` (stereo not drawn) [Example B75], the EC50 under setting [2] was over 30200 nM. Further, the Emax under setting [1] amounted to 27%. Taken in the same sequence, the figures for `Cn1cc(C(=O)N2CCn3nc(OCc4cccc(F)c4)cc3C2)c2ccccc21` [Example B79] were 1320 nM and 32%.
